Data: patent US20200165194A1, “ADDITIVE COMPOSITION FOR CULTURE MEDIUM, ADDITIVE COMPOUND FOR CULTURE MEDIUM, AND METHOD FOR CULTURE OF CELLS OR TISSUE USING SAME” (NISSAN CHEMICAL CORPORATION, priority 2017, published 2020)
Like-named read-outs stand apart in the source and are kept apart here.

Legend:
Format in all cases: cell-based
hiPS cell line 253G1 = experiment: Human pluripotent stem cell (hiPS cell), EZSPHERE plate, ATP assay (Experimental Example 13); conditions: for relative value (%): hiPS 253G1, EZSPHERE plate, 5 μM, 3 days, RLU of DMSO addition = 100%; for proliferation activity (in words): human pluripotent stem cells under three-dimensional conditions
Description: hiPS cell line 253G1 (purchased from RIKEN) was cultured on a dish coated with vitronectin VTN-N (manufactured by Thermo Fisher Scientific) using mTeSR1 (registered trade mark) medium (manufactured by STEMCELL Technologies). The above-mentioned cells in the proliferation phase were washed with PBS (manufactured by Fujifilm Corporation Wako Pure Chemical Industries, Ltd.), TrypLE Select (registered trade mark) (manufactured by Thermo Fisher Scientific) was added and the mixture was incubated at 37° C. for 3 min to remove the detaching solution. The medium was added and the cells were detached by pipetting. Thereafter, the supernatant was removed by centrifugation.
The aforementioned cells were suspended in a medium containing 10 μM Y-27632 (manufactured by Fujifilm Corporation Wako Pure Chemical Industries, Ltd.) and seeded in a 96-well EZSPHERE plate (manufactured by AGC TECHNO GLASS CO., LTD., #4860-900) at a cell concentration of 10000 cells/200 μL/well. […] The amount of each compound solution to be added was 2 μL/well. As a control, a DMSO solution dissolved in a medium was added (DMSO final concentration 0.05%). The medium was exchanged by half the volume every day, and each compound solution was also added to make the compound concentration constant.

[1] = tested on: Mouse embryonic fibroblast C3H10T1/2; experiment: Fibroblast strain C3H10T1/2, 3D culture, ATP assay (Experimental Example 11); conditions: for proliferation activity (in words): fibroblast under three-dimensional conditions
Description: Mouse embryonic fibroblast C3H10T1/2 (manufactured by DS PHARMA BIO MEDICAL) was cultured in a BME medium (manufactured by Thermo Fisher Scientific) containing 10 (v/v) % FBS (manufactured by Corning) and the L-glutamine-penicillin-streptomycin stabilizing solution (manufactured by Sigma-Aldrich). The above-mentioned cells in the logarithmic growth phase were washed with PBS, a 0.25 w/v % trypsin-1 mmol/L EDTA (ethylenediaminetetraacetic acid) solution (manufactured by Wako Pure Chemical Industries, Ltd.) was added, and the cells were detached by incubating at 37° C. for 3 min. Each medium was added, the mixture was centrifuged, and the supernatant was removed.
(§1) The aforementioned various cells were suspended in respective deacylated gellan gum-containing or not containing media (deacylated gellan gum concentration was 0.015 w/v %), and seeded in a 96 well low attachment U-bottom plate (manufactured by Corning, #4520, deacylated gellan gum-free medium) at a cell concentration of 700-2000 cells/90 μL/well (3D culture). […] The amount of each compound solution to be added was 10 μL/well. As a control, a DMSO solution dissolved in a medium was added (DMSO final concentration 0.1%). […] When compared with the compound no-addition (control), one showing a value of not more than 119% as -, one showing a value of not less than 120% as ◯, and one showing a value of not less than 150% as ⊚ are shown in the eighteenth table. Unperformed test is left blank.

[2] = tested on: human ovarian cancer cell line SKOV3; experiment: Various human cancer cells-2, 3D culture, ATP assay (Experimental Example 6); conditions: 4 days; for viability at 5 µM / viability at 10 µM: Homo sapiens, SK-OV-3, 96 h, read-out: number of viable cells (RLU), relative value to control (100%)
Description: (§2) Various human-derived cancer cells were precultured (single layer culture) in respective media shown below. […] The above-mentioned cells in the logarithmic growth phase were washed with PBS, a 0.25 w/v % trypsin-1 mmol/L EDTA (ethylenediaminetetraacetic acid) solution (manufactured by Wako Pure Chemical Industries, Ltd.) was added, and adherent cells were detached by incubating at 37° C. for 1-5 min. Each medium was added and the mixture was centrifuged. After resuspension in the same medium, each cell was recovered.
as §1, with “gum-free medium), or a low attachment flat bottom plate (manufactured by Corning, #3474, deacylated gellan gum-containing” for “gum-free”, “700-12000” for “700-2000”, “(all 3D” for “(3D”, “eleventh table and the twelfth” for “eighteenth”

[3] = tested on: human alveolar basal epithelial adenocarcinoma-derived cell line A549; experiment: as above; conditions: 4 days; for viability at 5 µM / viability at 10 µM: Homo sapiens, A549, 96 h, read-out: number of viable cells (RLU), relative value to control (100%)
Description: as §2
as §1, with “gum-free medium), or a low attachment flat bottom plate (manufactured by Corning, #3474, deacylated gellan gum-containing” for “gum-free”, “700-12000” for “700-2000”, “(all 3D” for “(3D”, “eleventh table and the twelfth” for “eighteenth”

[4] = tested on: a plurality of cancer cell lines; experiment: Various human cancer cells-2, summary over the cell lines (Experimental Example 6); conditions: cancer cell lines under three-dimensional conditions
Description: as §2
as §1, with “gum-free medium), or a low attachment flat bottom plate (manufactured by Corning, #3474, deacylated gellan gum-containing” for “gum-free”, “700-12000” for “700-2000”, “(all 3D” for “(3D”, “eleventh table and the twelfth” for “eighteenth”

[5] = Mus musculus, C3H 10T1/2, 96 h, C3H10T1/2, low attachment U-bottom plate, 1 μM, 4 days, read-out: number of viable cells (RLU), relative value to control (100%)
[6] = low attachment U-bottom plate, 5 μM
[7] = low attachment U-bottom plate, 10 μM
[8] = low attachment flat bottom plate (gellan gum medium), 5 μM
[9] = low attachment flat bottom plate (gellan gum medium), 10 μM
[10] = C3H10T1/2, low attachment U-bottom plate, 1 μM, 4 days

Row | Structure (SMILES) | relative value (%) (hiPS cell line 253G1) | proliferation activity (in words) (hiPS cell line 253G1) | viability at 1 µM [1, 5] [%] | proliferation activity (in words) [1] | number of viable cells (RLU), relative value to control (100%) [2, 6] | number of viable cells (RLU), relative value to control (100%) [2, 7] | number of viable cells (RLU), relative value to control (100%) [2, 8] | number of viable cells (RLU), relative value to control (100%) [2, 9] | number of viable cells (RLU), relative value to control (100%) [3, 6] | number of viable cells (RLU), relative value to control (100%) [3, 7] | number of viable cells (RLU), relative value to control (100%) [3, 8] | number of viable cells (RLU), relative value to control (100%) [3, 9] | proliferation activity (in words) [4] | number of viable cells (RLU), relative value to control (100%) [1, 10] | also measured
1 | CCC(=NNC(=O)C(CC)Nc1ccccc1)c1ccc(O)c(C)c1O (stereo not drawn) [k-1:H-7] | 194 | promoted proliferation activity in human pluripotent stem cells | – | – | – | – | – | – | – | – | – | – | – | – | –
2 | CC/C(=N\NC(=O)CNc1cccc(O)c1)c1ccc(O)c(C)c1O [k-1:D-1] | 207 | promoted proliferation activity in human pluripotent stem cells | > 120 | promoted proliferation activity in fibroblast | ⊙ | ⊙ | ⊙ | ⊙ | ⊙ | ⊙ | ⊙ | ⊙ | promoted proliferation activity in a plurality of cancer cell lines | – | –
3 | CC/C(=N\NC(=O)C(C)Nc1ccccc1)c1ccc(O)c(C)c1O (stereo not drawn) [k-1:B-1] | 193 | promoted proliferation activity in human pluripotent stem cells | – | promoted proliferation activity in fibroblast | ⊙ | ⊙ | ⊙ | ⊙ | ⊙ | ⊙ | ⊙ | ⊙ | promoted proliferation activity in a plurality of cancer cell lines | ⊙ | number of viable cells (RLU), relative value to control (100%) ([1]; C3H10T1/2, low attachment U-bottom plate, 5 μM, 4 days): ⊙
4 | CC/C(=N\NC(=O)NCc1ccccc1)c1ccc(O)c(C)c1O [k-1:I-1] | – | – | > 120 | promoted proliferation activity in fibroblast | – | – | – | – | – | – | – | – | promoted proliferation activity in a plurality of cancer cell lines | – | viability at 5 µM ([1]; Mus musculus, C3H 10T1/2, 96 h, C3H10T1/2, low attachment U-bottom plate, 5 μM, 4 days, read-out: number of viable cells (RLU), relative value to control (100%)): > 120%; viability at 5 µM [2, 6]: 120 to 150%; viability at 10 µM [2, 7]: 120 to 150%; viability at 5 µM [2, 8]: < 119%; viability at 10 µM [2, 9]: 120 to 150%; viability at 5 µM [3, 6]: < 119%; viability at 10 µM [3, 7]: < 119%; viability at 5 µM [3, 8]: < 119%; viability at 10 µM [3, 9]: 120 to 150%
5 | CC/C(=N\NC(=O)NCc1cccc(O)c1)c1ccc(O)c(C)c1O [k-1:J-1] | 227 | promoted proliferation activity in human pluripotent stem cells | – | promoted proliferation activity in fibroblast | ⊙ | ⊙ | ⊙ | ⊙ | ⊙ | ⊙ | ⊙ | ⊙ | promoted proliferation activity in a plurality of cancer cell lines | ⊙ | –
